Measurements: PMC11984586, “A novel spider toxin as a selective antagonist of the Kv1 subfamily of voltage-gated potassium channels through gating modulation” (The Journal of Biological Chemistry, 2025)
Bridge positions count the residues as written; N and C are the ends. Peptide text beside a SMILES is read from it.

Key:
Assay type in all cases: cell-based
[1] = target: T1, Kv1.3/1.1 S5-S6 chimeric channel (Homo sapiens, UniProt P22001, D422E/D423E/G427H/H451Y/P424A/T425E/T441S); test: Whole-cell patch clamp, chimeric channel; details: +30 mV, 500 ms, holding −80 mV, mean ± SD, n = 4-5, read-out: IC50, Kv1.3/1.1 S5-S6 current
T1 construct: expressed in transfected cells; host or cells: CHO-K1
T1 sequence (P22001 whole entry D422E/D423E/P424A/T425E/G427H/T441S/H451Y): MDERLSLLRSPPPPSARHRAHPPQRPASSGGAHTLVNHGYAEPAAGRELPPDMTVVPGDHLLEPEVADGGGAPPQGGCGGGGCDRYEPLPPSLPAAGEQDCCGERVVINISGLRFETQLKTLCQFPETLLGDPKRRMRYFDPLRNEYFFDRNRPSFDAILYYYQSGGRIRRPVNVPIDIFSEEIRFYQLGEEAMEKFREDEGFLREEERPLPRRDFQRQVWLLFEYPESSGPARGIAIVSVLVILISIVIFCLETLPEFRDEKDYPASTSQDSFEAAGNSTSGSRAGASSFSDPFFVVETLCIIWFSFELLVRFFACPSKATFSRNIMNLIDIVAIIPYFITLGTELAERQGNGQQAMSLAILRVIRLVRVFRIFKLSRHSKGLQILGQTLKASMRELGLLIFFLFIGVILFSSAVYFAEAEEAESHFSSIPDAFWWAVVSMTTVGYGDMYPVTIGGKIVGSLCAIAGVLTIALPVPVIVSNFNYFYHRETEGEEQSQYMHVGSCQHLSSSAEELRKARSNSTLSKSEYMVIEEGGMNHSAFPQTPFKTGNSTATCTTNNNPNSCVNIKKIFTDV
From the text: To investigate the structural determinants underlying the differential regulatory effects of MrVIII on Kv1 channels, we employed a chimeric channel strategy. Using Kv1.3 as the template, the S1-S2, S3-S4, and S5-S6 transmembrane helices and their respective linkers from Kv1.1 were inserted to generate chimeras, generating the Kv1.3/1.1 S1-S2, Kv1.3/1.1 S3-S4, and Kv1.3/1.1 S5-S6 chimeric channels. […] These findings indicate that the S3-S4 is the key determinant for the differential inhibition of Kv1.1 and Kv1.3 by MrVIII. To further validate this conclusion, we constructed a reverse chimeric channel using Kv1.1 as the template, inserting the corresponding regions from Kv1.3 into Kv1.1. […] This finding more directly illustrates the exchange of the channel's voltage-dependence phenotype in toxin inhibition by swapping this S3-S4 between Kv1.1 and Kv1.3. […] In addition to confirming the differential role of S3-S4 between Kv1.1 and Kv1.3, we also substituted the S3-S4 of Kv1.4 and Kv1.7 into Kv1.3 to analyze MrVIII's inhibition profile. […] The IC50 for Kv1.3/1.7 S3-S4 could not be fitted, and inhi%(495 ms) was only 23.1 ± 10.0% (Fig. S2, E and F). […]
(§1) CHO-K1 cells were selected for expressing Kv channels due to their lack of endogenous Kv channels, while HEK293 or ND7/23 cells were used for Nav and Cav channel expression. […] After 4 to 6 h transfection, cells were seeded onto poly-lysine–coated coverslips, and 24 to 36 h later, transfected cells were ready for patch-clamp analysis. […]
For Kv current recordings, the bath solution contained (in mM) the following: 140 NaCl, 5 KCl, 1 MgCl2, 2 CaCl2, 10 glucose, and 10 Hepes (pH 7.3, adjusted with NaOH), and the pipette solution contained (in mM) the following: 140 KCl, 2.5 MgCl2, 11 EGTA, and 10 Hepes (pH 7.3, adjusted with KOH). […] Whole cell conductance (G) at each depolarizing voltage (V) was determined using the equation: G = I/(V−Vrev), where I is the current amplitude, and Vrev is the reversal potential. […]

Kv1.3/L347I = target: T2, Kv1.3/L347I (Homo sapiens, UniProt P22001, L347I); test: Whole-cell patch clamp, Kv1.3 point mutant; details: +30 mV stimulus, mean ± SD, n = 5, read-out: IC50, Kv1.3/L347I current
T2 construct: expressed in transfected cells; host or cells: CHO-K1
T2 sequence (P22001 whole entry L347I): as the sequence (P22001 whole entry D422E/D423E/P424A/T425E/G427H/T441S/H451Y) above, with L347I, E422D, E423D, A424P, E425T, H427G, S441T, Y451H counted along it
From the text: (§2) In contrast, differences at positions 347, 355, and 358 between Kv1.3 and Kv1.1 prompted further analysis. To explore whether these discrepancies influence peptide-mediated inhibition, we substituted these residues in Kv1.3 with their homologous counterparts in Kv1.1 and assessed the MrVIII's inhibitory efficacy on these single-point mutants. […] To further investigate this, we introduced double adjacent mutations around Q355 and M358 in Kv1.3 to explore potential synergistic effects on MrVIII's inhibitory activity.
(§3) The cDNA of hKv1.1, hKv1.2, hKv1.3, rKv1.4, hKv1.5, mKv1.6, and hKv1.7 were subcloned into mammalian expression vectors pcDNA3.1 or pCMV-blank vectors, as well as other plasmids described previously ([35]). Channel mutants were generated by site-directed mutations. Briefly, the parental channel plasmid was amplified using a pair of oppositely directed primers harboring the designed mutation site, with KOD Fx (TOYOBO Co, Ltd). The resulting PCR mix was treated with FastDigest DpnI (Thermo Fisher Scientific) to remove the methylated template. Ten microliters of the digested product was then used to transform 100 μl E. coli DH5α competent cells. […]
as §1
(§4) For Kv current recordings, the bath solution contained (in mM) the following: 140 NaCl, 5 KCl, 1 MgCl2, 2 CaCl2, 10 glucose, and 10 Hepes (pH 7.3, adjusted with NaOH), and the pipette solution contained (in mM) the following: 140 KCl, 2.5 MgCl2, 11 EGTA, and 10 Hepes (pH 7.3, adjusted with KOH). […] Whole cell conductance (G) at each depolarizing voltage (V) was determined using the equation: G = I/(V−Vrev), where I is the current amplitude, and Vrev is the reversal potential. […] The steady-state fast inactivation of Kv1.3 was measured using a two-pulses protocol. […]

Kv1.3/M358T = target: T3, Kv1.3/M358T (Homo sapiens, UniProt P22001, M358T); test: Whole-cell patch clamp, Kv1.3 point mutant; details: +30 mV stimulus, mean ± SD, n = 5, read-out: IC50, Kv1.3/M358T current
T3 construct: expressed in transfected cells; host or cells: CHO-K1
T3 sequence (P22001 whole entry M358T): as the sequence (P22001 whole entry D422E/D423E/P424A/T425E/G427H/T441S/H451Y) above, with M358T, E422D, E423D, A424P, E425T, H427G, S441T, Y451H counted along it
From the text: as §2, §3, §1, §4

Kv1.3/Q355E = target: T4, Kv1.3/Q355E (Homo sapiens, UniProt P22001, Q355E); test: Whole-cell patch clamp, Kv1.3 point mutant; details: +30 mV stimulus, mean ± SD, n = 5, read-out: IC50, Kv1.3/Q355E current
T4 construct: expressed in transfected cells; host or cells: CHO-K1
T4 sequence (P22001 whole entry Q355E): as the sequence (P22001 whole entry D422E/D423E/P424A/T425E/G427H/T441S/H451Y) above, with Q355E, E422D, E423D, A424P, E425T, H427G, S441T, Y451H counted along it
From the text: as §2, §3, §1, §4

What does the source list for `CC[C@H](C)[C@@H]1NC(=O)[C@H](Cc2ccc(O)cc2)NC(=O)[C@H](CCC(N)=O)NC(=O)[C@@H]2CCCN2C(=O)[C@@H]2CSSC[C@H](NC(=O)[C@H](C)NC(=O)[C@H](CO)NC(=O)[C@H](CCC(=O)O)NC(=O)[C@H](CCC(=O)O)NC(=O)[C@@H](N)[C@@H](C)O)C(=O)NCC(=O)NCC(=O)N[C@@H](Cc3ccccc3)C(=O)N[C@@H](CC(N)=O)C(=O)N[C@@H](C)C(=O)N[C@@H](CCCNC(=N)N)C(=O)N[C@H]3CSSC[C@H](NC1=O)C(=O)N[C@@H](CCCCN)C(=O)NCC(=O)N[C@@H](Cc1c[nH]c4ccccc14)C(=O)N[C@@H](CCCNC(=N)N)C(=O)N[C@@H]([C@@H](C)O)C(=O)N[C@@H](CCCCN)C(=O)N[C@@H](CCCNC(=N)N)C(=O)N[C@H](C(=O)N[C@@H](CC(C)C)C(=O)N[C@@H](CC(N)=O)C(=O)N1CCC[C@H]1C(=O)O)CSSC[C@H](NC(=O)[C@H](CCCCN)NC(=O)[C@H](Cc1c[nH]cn1)NC(=O)[C@H](CC(C)C)NC(=O)[C@@H]1CCCN1C3=O)C(=O)N2` [MrVIII] (H-TEESACGGFNARCPLHKCCPQYICKGWRTKRCLNP-OH; disulfide 6-19, 13-24, 18-32; N-terminus and C-terminus assumed)?
IC50 [1]: 0.003 ± 0.0009 µM; IC50 (Kv1.3/L347I): 0.0142 ± 0.0008 µM; IC50 (Kv1.3/M358T): 0.143 ± 0.033 µM; IC50 (Kv1.3/Q355E): 0.0142 ± 0.0072 µM
